From patent US20250283887A1, “FLUORESCENT-PROBE SOLUTION” (GORYO CHEMICAL, INC., priority 2022, published 2025)

Columns and labels:
[1] = Storage stability of Tween 80-containing fluorescent-probe solutions of Test Examples 13 to 15 in sealed glass vials (HPLC purity); type: physicochemical; details: vial stored at 25°C in the dark for 85 days; converted to 3 years (FIG. 4); DMSO 10-50 v/v % with Tween 80
Protocol: (§1) HPLC analysis was performed under the following conditions through use of a liquid chromatography system (UltiMate 3000, Thermo Fisher Scientific Inc.), and the ratio of the peak area of HMRef-αMan with respect to the entire peak area was calculated as a purity. • Column: Meteoric core C8, 5 μm, 4.6×150 mm (YMC Co., Ltd.) • Column temperature: 25° C. • Mobile phase A: water/TFA (1,000:1) • Mobile phase B: acetonitrile/TFA (1,000:1) • Liquid-feeding amount: 1.0 mL/min. • Wavelength: 254 nm • Liquid feeding to mobile phase: The liquid was fed under the conditions shown in the following table.
A glass vial was filled with the fluorescent-probe solution obtained in each of Test Examples 13 to 15, and sealed with a rubber stopper. The vial filled with each of the fluorescent-probe solutions was stored at 25° C. in the dark for 85 days, and analysis was performed by liquid chromatography.
In the same manner as in Test Examples 1 to 11, the purity of HMRef-αMan and the content of the oxidized form thereof in each of the fluorescent-probe solutions within 12 hours after preparation, and those in each of the fluorescent-probe solutions after storage for 85 days in the vials were measured, and the reduction amount of the purity and the increase amount of the oxidized form in 3 years were calculated as converted values. […]

[2] = Storage stability of fluorescent-probe solutions of Test Examples 1 to 11 in sealed glass vials (HPLC purity); type: physicochemical
Protocol: A 25 mL glass vial (manufactured by Daiwa Special Glass Co., Ltd.) was filled with 0.125 mL to 0.312 mL of the fluorescent-probe solution obtained in each of Test Examples 1 to 11, and the opening of the glass vial was plugged with a rubber stopper (No. 20-T manufactured by Maruemu Corporation), and then tightly sealed with an aluminum cap over the rubber stopper. The vial filled with each of the fluorescent-probe solutions was stored at 25° C. or 50° C. in the dark for from 25 days to 32 days.
The purity of HMRef-αMan in each of the fluorescent-probe solutions within 12 hours after preparation, and that in each of the fluorescent-probe solutions after storage for from 25 days to 32 days in the vials were measured as described below, and the difference between the purities (the former−the latter) was divided by the number of storage days. Thus, the reduction amount of the purity per day was calculated. In addition, the reduction amount of the purity (converted value) in storage (3 years) at room temperature or in storage (1 year) at 50° C. was calculated from the reduction amount of the purity per day. All the purities of HMRef-αMan within 12 hours after the preparation of the fluorescent-probe solutions obtained in Test Examples 1 to 11 were 99% or more.
as §1, with “table. […]” for “table.”

stability during storage ([2]; presence of water in the solvent, FIG. 1 and FIG. 2): improved
SMILES: OC[C@H]1O[C@H](Cc2ccc3c(c2)Oc2cc(NCC(F)(F)F)ccc2C32OCc3ccccc32)[C@@H](O)[C@@H](O)[C@@H]1O (stereo partly shown) [HMRef-αMan]
reduction in purity of HMRef-αMan during storage [1]: suppressed even when the content of the organic solvent is reduced by adding the solubilizer
main analog observed after storage (mass spectrometry of resolved HPLC peak) ([2]; after storage for 25 to 32 days in the vials): an analog (oxidized form) in which two hydrogen atoms were lost from HMRef-αMan was observed as a main analog
reduction in purity of HMRef-αMan during storage ([2]; vial stored at 25°C or 50°C in the dark for 25 to 32 days, converted to 3 years at room temperature / 1 year at 50°C (FIG. 1, FIG. 2), DMSO/water with or without phosphate): suppressed by the presence of water in the solvent
